Source: patent publication US20260325464A1, “COMPOSITIONS FOR MODULATING THE EXPRESSION OF AQUAPORINS IN NEURODEGENERATIVE DISORDERS” (priority 2023, published 2026)
Where two headings read alike, the source gives them in different places. Marks after values point to notes of the source that are not given here.

Experiments:
Apolipoprotein E = Apolipoprotein E level in plasma (ELISA), AlCl3 Alzheimer's model; type: in vivo, rat; conditions: for Apolipoprotein E: p.o. + AlCl3 (100 mg/kg, i.p.), plasma, Mean ± SEM, n = 6
Source text: The levels of Tau, β-amyloid (1-42) and Apolipoprotein E were estimated. using ELISA kit (Krishgen Biosystems, India). All the protein biomarkers of AD were elevated in the AD control group.

[1] = system: frontal cortex and hippocampus; assay: Brain histopathology (H&E), AlCl3 Alzheimer's model; type: in vivo, rat; conditions: 5 mg/kg, 10 mg/kg and 20 mg/kg
Source text: (§1) The brain histopathology was done for all the experimental groups. The brain tissue was fixed in 10% buffered neutral formalin solution. The tissue was embedded in paraffin, sectioned at […] stained with hematoxylin and eosin (H&E). The sections were examined under light microscope to study the architecture of the brain tissue, and then photomicrographs were taken (Fischer A H, Jacobson K A, Rose J, Zeller R. Hematoxylin and eosin staining of tissue and cell sections. CSH Protoc. 2008:1;pdb.prot4986. doi: 10.1101/pdb.prot4986).

Parkinson's disease = assay: Open field test in rats with reserpine-induced Parkinson's disease; type: in vivo, rat; conditions: for Freezing / Number of central explorations / Number of squares crossed: p.o. + Reserpine (4 mg/kg, s.c.), open field, Mean ± SEM, n = 6
Source text: (§2) The induction of Parkinson's disease and measurement of other parameters were done as per the reported protocol (Santos et al., Cognitive, motor and tyrosine hydroxylase temporal impairment in a model of parkinsonism induced by reserpine. Behav Brain Res. 2013; 253:68-77 and Shishehbore et al. A novel kinetic spectrophotometric method for the determination of dopamine in biological and pharmaceutical samples. J Chem. 2013; 2013:1-6). Induction of Parkinson's disease was done by administering Resperine, which inhibits the monoamine vesicular transporters, thus decreasing the levels of monoamine neurotransmitters in the brain. Following pretreatment for 14 days with Gingerenone A, the rat groups received subcutaneous injections of reserpine (4 mg/kg) for the final five days of the treatment regimen. Resperine (5 mg) was dissolved in 1 ml of 1% acetic acid and then diluted tenfold with distilled water to achieve a final concentration of 500 μg/ml. The normal control group received saline with 1% acetic acid […], administered from day 10 to day 14. Thirty minutes following the administration of reserpine on the 14th day, behavioural assessments were conducted using the Open Field test, Y Maze, and Catalepsy tests to evaluate changes. Rats administered with Carbidopa, a known drug for the management of Parkinson's disease was also used for comparison. Upon completion of the study, brains were harvested for biochemical analyses and histopathological studies. The experimental group is depicted in table 10.
Open filed test—The test was conducted as per protocol described by Saleem et al., Pharmacological Potential of the Standardized Methanolic Extract of Prunus armeniaca L. in the Haloperidol-Induced Parkinsonism Rat Model. Evid Based Complement Alternat Med. 2022:29; 3697522. doi: 10.1155/2022/3697522. This test was conducted to assess the locomotor and exploratory behaviors of the experimental rats. A square-shaped wooden box measuring 100 cm in width, 100 cm in […], and 45 cm in height was constructed using plywood material, painted white, with a black-lined floor divided into 25 blocks. The rats were placed in the center of the field for a duration of 5 minutes and allowed to explore the box freely. The number of squares crossed, both centrally and horizontally, along with the total number of crossings, instances of defecation, freezing behavior, and postures were recorded during this period. Normal animals readily and quickly acclimate to the chamber and try to explore the center area of the squares.

Dopamine = Dopamine in brain (kinetic spectrophotometric), reserpine Parkinson's model; type: in vivo, rat; conditions: for Dopamine: p.o. + Reserpine (4 mg/kg, s.c.), brain, Mean ± SEM, n = 6
Source text: as §2, with “Rats administered with Carbidopa, a known drug for the management of Parkinson's disease was also used for comparison.” left out
Dopamine—Studies have shown that symptoms of Parkinson's develop in patients with an 80 percent or greater loss of dopamine-producing cells in the substantia nigra. Normally, dopamine operates in a delicate balance with other neurotransmitters to help coordinate the millions of nerve and muscle cells involved in movement. Neurons of the substantia nigra communicate with neurons of the basal ganglia by liberating the neurotransmitter dopamine (DA). Such an interaction at the biochemical level is responsible for the fine tuning of the movements. The proposed method for the estimation of dopamine is based on inhibitory effect of dopamine on the oxidation of thionine by bromate in acidic media. The change in absorbance was recorded spectrophotometrically at 601 nm (Shishehbore et al., Novel Kinetic Spectrophotometric Method for the Determination of Dopamine in Biological and Pharmaceutical Samples. 2013. Article ID 819460, https://doi.org/10.1155/2013/819460).

substantia nigra = assay: Brain histopathology of substantia nigra, reserpine Parkinson's model; type: in vivo, rat
Source text: as §1
as §2, with “Rats administered with Carbidopa, a known drug for the management of Parkinson's disease was also used for comparison.” left out

[2] = system: acetylcholinesterase (AChE); conditions: for Ach E: p.o. + AlCl3 (100 mg/kg, i.p.), brain homogenate, Mean ± SEM, n = 6
Protocol: At the conclusion of the study, the rats were euthanized by decapitation, and their brains were swiftly removed and placed in ice-cold saline solution. The cortex and hippocampus were carefully isolated and submerged in an ice-cold water container to halt enzymatic reactions. The levels of acetylcholinesterase (AChE) and butyrylcholinesterase (BChE) in the cortex and hippocampus regions of the brain were determined using Ellman's method from 1961. Approximately 100 mg of the isolated brain sections were weighed and homogenized in phosphate buffer (0.1 M, pH 8.0). To 0.4 mL of the homogenate, the following components were added: 2.6 mL of phosphate buffer (0.1 M, pH 8.0), 100 μL of 10 mM 5,5-dithio-bis-(2-nitrobenzoic acid) (DTNB), and 20 μL of acetylthiocholine iodide (AChI) solution (0.075 M). The mixture was thoroughly mixed. The absorbance was then measured at 412 nm for a duration of 5 minutes.
n=6, All the values were expressed in Mean±SEM (n=6). The statistical analysis was carried out using one way ANOVA.

COc1cc(CC/C=C/C(=O)CCc2ccc(O)c(OC)c2)ccc1O [Gingerenone A]
Apolipoprotein E (Apolipoprotein E; 5 mg/kg): 7.47 ± 0.054 ng/mL
Apolipoprotein E (Apolipoprotein E; 10 mg/kg): 7.08 ± 0.076 ng/mL
Apolipoprotein E (Apolipoprotein E; 20 mg/kg): 6.84 ± 0.034 ng/mL
levels of Apolipoprotein E (in words) (Apolipoprotein E; AlCl3 model, Table 8): significantly reduced
histopathology of frontal cortex ([1]; FIG. 5A, 6A, 7A): intact pyramidal cells having round to oval vesicular nucleus with abundant cytoplasm, neuroglial cells, granular cells and intact blood vessels with degenerated cells [mild to moderate] with dystrophic changes having shrunken and hyperchromatic nuclei and without inflammation
histopathology of hippocampus (CA1, CA2, CA3) ([1]; FIG. 5B-D, 6B-D, 7B-D): intact architecture consisting of Cornu Ammonis [CA] and dentate gyrus with compact layers of pyramidal cells having vesicular nuclei and moderate cytoplasm without shrinkage and necrosis
Freezing (Parkinson's disease; 5 mg/kg): 15.29 ± 0.35 s
Number of central explorations (Parkinson's disease; 5 mg/kg): 12.57 ± 1.05
Number of squares crossed (Parkinson's disease; 5 mg/kg): 21.62 ± 2.47
Freezing (Parkinson's disease; 10 mg/kg): 10.38 ± 0.62 s
Number of central explorations (Parkinson's disease; 10 mg/kg): 17.34 ± 1.20
Number of squares crossed (Parkinson's disease; 10 mg/kg): 27.45 ± 2.06
Freezing (Parkinson's disease; 20 mg/kg): 9.02 ± 0.45 s
Number of central explorations (Parkinson's disease; 20 mg/kg): 17.27 ± 0.98
Number of squares crossed (Parkinson's disease; 20 mg/kg): 26.26 ± 2.27
locomotory and exploratory behaviors (in words) (Parkinson's disease; reserpine model, Table 11): significantly improved the behavior
Dopamine (Dopamine; 5 mg/kg): 0.124 ± 0.007 µg/mL
Dopamine (Dopamine; 10 mg/kg): 0.142 ± 0.011 µg/mL
Dopamine (Dopamine; 20 mg/kg): 0.141 ± 0.011 µg/mL
dopamine levels (in words) (Dopamine; reserpine model, Table 14): increased
histopathology of substantia nigra (substantia nigra; 5 mg/kg, FIG. 12): both normal [FIG. 12A—Arrow] and degenerative neuronal cells having dark nucleus with mild basophilic cytoplasm [FIG. 12B—Arrow] and focal reactive microgliosis. Scant inflammation was noted at places. The neuropils had focal vacuoles
histopathology of substantia nigra (substantia nigra; 10 mg/kg, FIG. 13): both normal [FIG. 13A—Arrow] and degenerative neuronal cells having variable darkly stained nucleus [FIG. 13B—Arrow] with mild basophilic cytoplasm and scant inflammation
histopathology of substantia nigra (substantia nigra; 20 mg/kg, FIG. 14): both normal [FIG. 14A—Arrow] and degenerative neuronal cells having variable darkly stained nucleus [14B—Arrow] with mild basophilic cytoplasm and scant inflammation
Ach E ([2]; 5 mg/kg): 11.76 ± 0.93 10^−6 /mol/g of tissue
Ach E ([2]; 10 mg/kg): 8.77 ± 0.49** 10^−6 /mol/g of tissue
Ach E ([2]; 20 mg/kg): 6.87 ± 0.34** 10^−6 /mol/g of tissue
Acetyl cholinesterase (in words) ([2]; AlCl3 model, Table 5): significantly inhibited Acetyl cholinesterase
